By inhibition is commonly meant the percentage by which the read-out fell short of the control. The term IC50 denotes the concentration that inhibits the measured activity by half.

Assay [1] has as its system VEGF induced increases in intracellular calcium levels in HUVEC (human umbilical vein endothelial cells). In words: VEGF Stimulated Ca++ Signal in vitro (FLIPR). Format: cell-based. The settings on record: VEGF 5 ng/mL; for IC50: 0.01 to 10.0 μM. The method, boiled down: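 HUVEC loaded with Fluo-4 (45 min, 37° C.), washed, then pre-incubated 30 min with compound (10 μM single dose or 0.01–10.0 μM; 0.1% DMSO) before 5 ng/mL VEGF. Fluorescence at 516 nm read by FLIPR; IC50 from % inhibition of max-min VEGF response.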

In assay [2] the target is T1, cytoplasmic domain of the human VEGF receptor (VEGFR-2) (Homo sapiens, UniProt P35968).
T1 construct: The cytoplasmic domain of the human VEGF receptor (VEGFR-2) was expressed as a Histidine-tagged fusion protein; Histidine tag
In words: KDR Assay. To be noted: His-VEGFR-2; 3.6 μM ATP. Format: biochemical. An outline of the steps: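 His-tagged human VEGFR-2 cytoplasmic domain from baculovirus-infected insect cells, acting on poly-Glu-Tyr (4:1)-coated plates with 3.6 μM ATP in Hepes pH 7.4 with MgCl2/MnCl2 and 5% final DMSO, 10 min at 25 °C. Phosphotyrosine detected by peroxidase-conjugated antibody ELISA at 492 nm; IC50 from blank-subtracted OD versus concentration.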

T1 sequence (P35968 786-1356): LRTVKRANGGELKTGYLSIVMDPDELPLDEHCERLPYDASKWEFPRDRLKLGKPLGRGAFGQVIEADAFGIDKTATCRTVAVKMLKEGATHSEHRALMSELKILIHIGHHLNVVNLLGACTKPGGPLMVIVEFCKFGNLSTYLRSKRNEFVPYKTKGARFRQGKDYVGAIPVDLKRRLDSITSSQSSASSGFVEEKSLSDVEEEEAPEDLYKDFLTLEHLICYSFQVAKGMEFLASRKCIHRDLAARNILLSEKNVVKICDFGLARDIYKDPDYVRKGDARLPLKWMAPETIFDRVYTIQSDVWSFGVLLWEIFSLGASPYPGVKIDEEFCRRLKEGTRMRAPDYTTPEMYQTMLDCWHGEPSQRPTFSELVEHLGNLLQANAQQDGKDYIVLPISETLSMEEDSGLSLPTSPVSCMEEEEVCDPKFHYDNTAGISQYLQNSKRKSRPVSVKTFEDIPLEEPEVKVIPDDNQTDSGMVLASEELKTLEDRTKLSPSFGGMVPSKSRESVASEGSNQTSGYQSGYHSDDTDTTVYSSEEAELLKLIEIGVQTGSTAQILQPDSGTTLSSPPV

As to `COc1ccc(NC=C2C(=O)Nc3cccc(C)c32)c(F)c1` [Example 135, 3-[(2-Fluoro-4-methoxy-phenylamino)-methylene]-4-methyl-1,3-dihydro-indol-2-one], the inhibition at 10 µM in assay [1] (Homo sapiens, 10 μM) was 28%. The molecule also displayed an IC50 in assay [2] of 7770 nM.

Consider `Cc1cccc2c1C(=CNc1ccc(CO)cc1)C(=O)N2` [Example 99, 3-[(4-Hydroxymethyl-phenylamino)-methylene]-4-methyl-1,3-dihydro-indol-2-one], for which, in assay [1] (Homo sapiens, 10 μM), the inhibition at 10 µM was found to be 97.8%. In assay [2], this molecule came in with an IC50 of 210 nM.

For the molecule `NS(=O)(=O)c1ccc(NC=C2C(=O)Nc3ccccc32)cc1` [Example 38, 2-Oxo-1,2-dihydro-indol-3-ylidenemethyl-sulfanilamide], the “VEGF Stimulated Ca^++ signal assay % inhibition @ 10 μM” value in assay [1] (10 μM) is 92.08%. Besides, the IC50 in assay [1] is 1450 nM; in assay [2], 500 nM.

Consider `O=C1Nc2ccc(Cl)cc2C1=CNc1ccc(CN2CCCCC2)cc1` [Example 260, 5-Chloro-3-[(4-piperidin-1-ylmethyl-phenylamino)-methylene]-1,3-dihydro-indol-2-one], for which the values for the IC50 in assay [1], in assay [1] (Homo sapiens) and in assay [2] were 880 nM, no more than 1000 nM and 300 nM, respectively.

In the case of `CC(=O)Nc1ccc(NC=C2C(=O)Nc3cccc(C)c32)cc1` [Example 130, N-{4-[(4-Methyl-2-oxo-1,2-dihydro-indol-3-ylidenemethyl)-amino]-phenyl}-acetamide], the IC50 in assay [1] was 570 nM; in assay [1] (Homo sapiens) it was no more than 1000 nM; in assay [2], 380 nM. The inhibition at 10 µM in assay [1] (Homo sapiens, 10 μM) stood at 97.3%.

For `COc1ccc(NC=C2C(=O)Nc3ccccc32)cc1` [Example 7, 3-[(4-Methoxy-phenylamino)-methylene]-1,3-dihydro-indol-2-one], the values for the IC50 in assay [1], in assay [1] (Homo sapiens) and in assay [2] were 950 nM, no more than 1000 nM and 690 nM, respectively. In addition, the inhibition at 10 µM in assay [1] (Homo sapiens, 10 μM) amounted to 94.5%.

On to `O=C(O)Cc1ccc(NC=C2C(=O)Nc3ccc(Cl)cc32)cc1` [Example 115, {4-[(5-Chloro-2-oxo-1,2-dihydro-indol-3-ylidenemethyl)-amino]-phenyl}-acetic acid], for which the inhibition at 10 µM in assay [1] (Homo sapiens, 10 μM) turned out to be 98.2%. For the same molecule, the IC50 in assay [1] (Homo sapiens) turned out to be 3080 nM; in assay [2], 470 nM.

Take `Cc1cccc2c1C(=CNc1cccc(CCC(=O)O)c1)C(=O)N2` [Example 142, 3-{3-[(4-Methyl-2-oxo-1,2-dihydro-indol-3-ylidenemethyl)-amino]-phenyl}-propionic acid]: the inhibition at 10 µM in assay [1] (Homo sapiens, 10 μM) was 99.3%. Also, the results for the IC50 in assay [1] (Homo sapiens) and in assay [2] were 4160 nM and 210 nM, respectively.

As for `COc1ccc(NC=C2C(=O)Nc3cccc(C)c32)cc1O` [Example 117, 3-[(3-Hydroxy-4-methoxy-phenylamino)-methylene]-4-methyl-1,3-dihydro-indol-2-one], in assay [1] (Homo sapiens, 10 μM), the inhibition at 10 µM was 97.7%. The molecule also displayed an IC50 in assay [2] of 310 nM.

As for `CCN(CC)CCCOc1ccc(NC=C2C(=O)Nc3ccc(F)cc32)cc1` [Example 233, 3-{[4-(3-Diethylamino-propoxy)-phenylamino]-methylene}-5-fluoro-1,3-dihydro-indol-2-one], in assay [1] (Homo sapiens, 10 μM), the inhibition at 10 µM came to 96.9%. In assay [2], this molecule registered a half-maximal inhibitory concentration (IC50) of 190 nM.

On to `Nc1ccc(NC=C2C(=O)Nc3ccccc32)cc1` [Example 180, 3-[(4-Amino-phenylamino)-methylene]-1,3-dihydro-indol-2-one], for which the inhibition at 10 µM in assay [1] (Homo sapiens, 10 μM) came to 98.3%. In addition, the IC50 in assay [1] (Homo sapiens) was 1030 nM; in assay [2] it was 440 nM.

As to `O=C1Nc2ccc(F)cc2C1=CNc1ccc2ncsc2c1` [Example 173, 3-(Benzothiazol-6-ylaminomethylene)-5-fluoro-1,3-dihydro-indol-2-one], in assay [1] (Homo sapiens, 10 μM), the inhibition at 10 µM was determined as 94.5%. The IC50 in assay [1] (Homo sapiens) was found to be 1480 nM; in assay [2] it was 520 nM.

Regarding `Cc1cccc2c1C(=CNc1ccc(NCCN3CCOCC3)cc1)C(=O)N2` [Example 242, 4-Methyl-3-{[4-(2-morpholin-4-yl-ethylamino)-phenylamino]-methylene}-1,3-dihydro-indol-2-one], in assay [1] (Homo sapiens, 10 μM), the inhibition at 10 µM is 95.8%. This molecule also yielded a concentration for half-maximal inhibition (IC50) in assay [2] of 70 nM.

Regarding `Cc1cccc2c1C(=CNc1cccc(S(=O)(=O)NCCCO)c1)C(=O)N2` [Example 194, N-(3-Hydroxy-propyl)-3-[(4-methyl-2-oxo-1,2-dihydro-indol-3-ylidenemethyl)-amino]-benzenesulfonamide], in assay [1] (Homo sapiens, 10 μM), the inhibition at 10 µM turned out to be 96.9%. For the same molecule, the IC50 is 2670 nM in assay [1] (Homo sapiens) and 660 nM in assay [2].

Consider `Cc1ccc(NC=C2C(=O)Nc3ccccc32)cc1N` [Example 212, 3-[(3-Amino-4-methyl-phenylamino)-methylene]-1,3-dihydro-indol-2-one], for which the IC50 is 820 nM in assay [1], no more than 1000 nM in assay [1] (Homo sapiens) and 500 nM in assay [2]. Also, the inhibition at 10 µM in assay [1] (Homo sapiens, 10 μM) is 96.5%.

`CC(=O)Nc1ccc(NC=C2C(=O)Nc3ccc(Cl)cc32)cc1` [Example 114, N-{4-[(5-Chloro-2-oxo-1,2-dihydro-indol-3-ylidenemethyl)-amino]-phenyl}-acetamide]: in assay [1] (Homo sapiens, 10 μM), the inhibition at 10 µM amounted to 89%. In addition, the IC50 in assay [1] (Homo sapiens) is 1930 nM; in assay [2], 920 nM.

In the case of `Cc1cccc2c1C(=CNc1cccc(N)c1)C(=O)N2` [Example 210, 3-[(3-Amino-phenylamino)-methylene]-4-methyl-1,3-dihydro-indol-2-one], the inhibition at 10 µM in assay [1] (Homo sapiens, 10 μM) is 97.4%. For the same molecule, it took 170 nM to reach half-maximal inhibition in assay [2] (IC50).

Regarding `CCN(CC)CCCOc1ccc(NC=C2C(=O)Nc3ccccc32)cc1F` [Example 248, 3-{[4-(3-Diethylamino-propoxy)-3-fluoro-phenylamino]-methylene}-1,3-dihydro-indol-2-one], the IC50 is 710 nM in assay [1], no more than 1000 nM in assay [1] (Homo sapiens) and 630 nM in assay [2].

For `COc1ccc(NC=C2C(=O)Nc3cccc(C)c32)cc1F` [Example 91, 3-[(3-Fluoro-4-methoxy-phenylamino)-methylene]-4-methyl-1,3-dihydro-indol-2-one], the inhibition at 10 µM in assay [1] (Homo sapiens, 10 μM) came to 93.5%. Moreover, the figures for the IC50 in assay [1] (Homo sapiens) and in assay [2] were 3020 nM and 240 nM, respectively.

On to `Cc1ccc(NC=C2C(=O)Nc3cccc(C)c32)cc1O` [Example 125, 3-[(3-Hydroxy-4-methyl-phenylamino)-methylene]-4-methyl-1,3-dihydro-indol-2-one], for which the inhibition at 10 µM in assay [1] (Homo sapiens, 10 μM) stood at 96.5%. In addition, the values for the IC50 in assay [1] (Homo sapiens) and in assay [2] were 1860 nM and 670 nM, respectively.

For the molecule `COc1ccc(NC=C2C(=O)Nc3cccc(C)c32)cc1OC` [Example 126, 3-[(3,4-Dimethoxy-phenylamino)-methylene]-4-methyl-1,3-dihydro-indol-2-one], the inhibition at 10 µM in assay [1] (Homo sapiens, 10 μM) is 95.2%. Also, the IC50 in assay [1] (Homo sapiens) turned out to be 1220 nM; in assay [2], 340 nM.

In the case of `COC(=O)c1ccc(NC=C2C(=O)Nc3cccc(C)c32)cc1OC` [Example 93, 2-Methoxy-4-[(4-methyl-2-oxo-1,2-dihydro-indol-3-ylidenemethyl)-amino]-benzoic acid methyl ester], the inhibition at 10 µM in assay [1] (Homo sapiens, 10 μM) came to 51.5%. Also, the values for the IC50 in assay [1] (Homo sapiens) and in assay [2] were 6620 nM and 630 nM, respectively.

On to `O=C1Nc2ccccc2C1=CNc1cccc(S(=O)(=O)NCCCO)c1` [Example 193, N-(3-Hydroxy-propyl)-3-[(2-oxo-1,2-dihydro-indol-3-ylidenemethyl)-amino]-benzenesulfonamide], for which the inhibition at 10 µM in assay [1] (Homo sapiens, 10 μM) turned out to be 81.5%. Besides, the IC50 in assay [1] (Homo sapiens) came out at 4770 nM; in assay [2], 2470 nM.

Consider `O=C1Nc2ccc(F)cc2C1=CNc1ccc(OCCCN2CCCCC2)cc1` [Example 240, 5-Fluoro-3-{[4-(3-piperidin-1-yl-propoxy)-phenylamino]-methylene}-1,3-dihydro-indol-2-one], for which the inhibition at 10 µM in assay [1] (Homo sapiens, 10 μM) was found to be 98.3%. In assay [2], 230 nM corresponded to half-maximal inhibition (IC50).

As for `O=C1Nc2ccc(Cl)cc2C1=CNc1ccc(CCN2CCOCC2)cc1` [Example 307, 5-Chloro-3-{[4-(2-morpholin-4-yl-ethyl)-phenylamino]-methylene}-1,3-dihydro-indol-2-one], the IC50 in assay [1] is 650 nM; in assay [1] (Homo sapiens), no more than 1000 nM; in assay [2], 270 nM.

For the molecule `O=C1Nc2ccccc2C1=CNc1ccc(N2CCCCC2)cc1` [Example 158, 3-[(4-Piperidin-1-yl-phenylamino)-methylene]-1,3-dihydro-indol-2-one], the inhibition at 10 µM in assay [1] (Homo sapiens, 10 μM) amounted to 97.5%. Moreover, the IC50 in assay [1] (Homo sapiens) turned out to be 1140 nM; in assay [2], 390 nM.

On to `N#Cc1ccc(NC=C2C(=O)Nc3ccccc32)cc1` [Example 29, 3-[(4-Cyanophenylamino)-methylene]-1,3-dihydro-indol-2-one], for which the inhibition at 10 µM in assay [1] (Homo sapiens, 10 μM) came to 81.5%. Further, the figures for the IC50 in assay [1] (Homo sapiens) and in assay [2] were 7290 nM and 680 nM, respectively.

As to `Cc1cccc2c1C(=CNc1cccc(CO)c1)C(=O)N2` [Example 185, 3-[(3-Hydroxymethyl-phenylamino)-methylene]-4-methyl-1,3-dihydro-indol-2-one], the concentration for half-maximal inhibition (IC50) was 870 nM in assay [1], no more than 1000 nM in assay [1] (Homo sapiens) and 330 nM in assay [2]. In addition, the inhibition at 10 µM in assay [1] (Homo sapiens, 10 μM) was determined as 98.4%.

Consider `Cc1cccc2c1C(=CNc1ccc(C#N)cc1)C(=O)N2` [Example 128, 4-[(4-Methyl-2-oxo-1,2-dihydro-indol-3-ylidenemethyl)-amino]-benzonitrile], for which the inhibition at 10 µM in assay [1] (Homo sapiens, 10 μM) was 42.9%. Moreover, the results for the IC50 in assay [1] (Homo sapiens) and in assay [2] were 8260 nM and 460 nM, respectively.

For `COc1ccc(NC=C2C(=O)Nc3ccccc32)cc1O` [Example 49, 3-[(3-Hydroxy-4-methoxy-phenylamino)-methylene]-1,3-dihydro-indol-2-one], the inhibition at 10 µM in assay [1] (Homo sapiens, 10 μM) turned out to be 97.1%. The IC50 in assay [2] worked out at 510 nM.

(Values after US20030225152A1, “3-(Arylamino)methylene-1, 3-dihydro-2h-indol-2-ones as kinase inhibitors” (priority 2001, published 2003).)
